Source: patent US20150125528A1 (The Water Initiative, LLC, priority 2012, published 2015)

Assay: calcium hypochlorite stability temperature data
Type: physicochemical
Settings: below approximately 120° C., 15 minute exposure
Source text: FIG. 2 illustrates calcium hypochlorite stability temperature data.

[Ca+2].[O-]Cl.[O-]Cl [calcium hypochlorite]
free chlorine concentration on heating: maintains its free chlorine concentration
